Patent US20060106098A1, “Andrographolide and its derivatives as TNF-alpha antagonists” (Advanced Gene Technology, Corp., priority 2004, published 2006)

Tests used:
L929 cells = experiment: Cytotoxicity on L929 cells (XTT, with Act D, without TNFα); type: cell-based; details: at the IC50 concentration (60 μM)
Experimental: (§1) In vitro L929 cell proliferation/cytotoxicity assay was performed on microtiter plates. L929 cells were cultured in Eagle's Minimal Essential Medium (EMEM) containing 10% bovine serum, 1% P/S and 1% non-essential amino acid. Confluent L929 cells were washed with 2 ml PBS solution and then trypsinized, followed by resuspending in complete medium. Two hundred μl cell suspension was aspirated for counting the cell density and the other suspension was centrifuged at 1500 rpm for 5 min. The supernatant was removed and the complete medium was added to dilute cells to a final concentration of 1.5×10^5 cells/ml. One hundred μl of cell suspension was added to each well in 96-well flat-bottomed microtiter plates and incubated for 24 hrs in 5% CO2 atmosphere at 37° C.
(§2) The same samples as those for TNFα activity assay were added to the 96-well plate with the medium containing Act D to give the final concentration of Act D 2 μg/ml. […] 50 μl XTT (2,3-bis(2-methoxy-4-nitro-5-sulfophenyl)-5-[((phenylamino)carbonyl]-2H-tetra -zolium hydroxide) mixture was added to each well, and incubated for 4 hrs. Read with ELISA reader at O.D. 490/630 nm. Calculation of the TNFα Activity Inhabitation and Cytotoxicity [formula] [formula] 8. The Effect of the Methanolic Extract of A. Paniculata on L929 Cell Proliferation/Cytotoxicity Assay

TNFα = target: T1, TNFα (Homo sapiens, UniProt P01375); experiment: In vitro L929 cell proliferation/cytotoxicity assay, TNFα activity inhibition; type: cell-based; details: L929 cell line, TNFα 0.1 ng/ml, Act D 2 μg/ml; read-out: IC50 as TNFα antagonist
T1 construct: purchased
Experimental: as §1
The chemical was resuspended in 1×PBS and sterilized with 0.22 μm filters. […]
as §2

[1] = system: collagen-induced arthritis; experiment: Anti-inflammatory effect on rats with collagen-induced arthritis model; type: in vivo, SD rats; details: for histopathological slice of joint: rat with CIA
[2] = CIA rats, 3rd day after treatment stopped (T4)
[3] = CIA rats, 7th day after treatment stopped (T5)

T1 sequence (P01375 77-233 limits assumed): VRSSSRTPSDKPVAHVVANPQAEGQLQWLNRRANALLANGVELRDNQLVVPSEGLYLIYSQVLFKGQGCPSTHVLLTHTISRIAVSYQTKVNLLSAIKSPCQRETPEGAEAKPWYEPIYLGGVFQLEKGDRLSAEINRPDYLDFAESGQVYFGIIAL

Structure (SMILES) | cytotoxicity (L929 cells) | IC50 (TNFα) [µM] | decreased percentage of edema [1, 2] [%] | decreased percentage of edema [1, 3] [%] | decreased percentage of edema volume of hind paws ([1]; CIA rats, during the 7-day treatment (T3, 6th day of treatment)) [%] | histopathological slice of joint ([1]; treated IP) | histopathological slice of joint ([1]; treated by external application) | histopathological slice of joint ([1]; treated by oral)
C=C1CC[C@@H]2[C@](C)(CO)[C@H](O)CC[C@@]2(C)[C@@H]1C/C=C1/C(=O)OC[C@H]1O [andrographolide, Andrographolide] | No cytotocixity was found | 60 | 61.43 | 50.24 | 48.1 | Proliferation of synovial lining cell and infiltration of erythrocytes and some lymphocytes were observed | Proliferation of synovial lining cell and loosely connective tissues appeared | Proliferation of synovial lining cell and infiltration of lymphocytes were found
C[C@@H]1C[C@H]2[C@@H]3CCC4=CC(=O)C=C[C@]4(C)[C@@]3(F)[C@@H](O)C[C@]2(C)[C@@]1(O)C(=O)CO [dexamethasone, Dexamethasone, reference compound] | – | – | 28.21 | 29.97 | – | – | – | –
